The source made the active and inactive calls.
What was measured:
[1] = target: Disintegrin and metalloproteinase domain-containing protein 17 (Homo sapiens, UniProt P78536); assay: exosite inhibitors of ADAM17, dose response, biochemical (AID 743260)
[2] = HEp-2 cell cytotoxicity, dose response, cytotoxicity control for RSV inhibitor project, HTS (AID 2410); assay type: functional; conditions: human respiratory syncytial virus
CAAX prenyl protease 2 [3] = target: T1, CAAX prenyl protease 2 (Homo sapiens, UniProt Q9Y256); assay: human Rce1 protease inhibitors, dose response, biochemical, yeast membranes, quenched-peptide fluorescence, cherry-pick (AID 588849)
T1 sequence (Q9Y256 whole entry): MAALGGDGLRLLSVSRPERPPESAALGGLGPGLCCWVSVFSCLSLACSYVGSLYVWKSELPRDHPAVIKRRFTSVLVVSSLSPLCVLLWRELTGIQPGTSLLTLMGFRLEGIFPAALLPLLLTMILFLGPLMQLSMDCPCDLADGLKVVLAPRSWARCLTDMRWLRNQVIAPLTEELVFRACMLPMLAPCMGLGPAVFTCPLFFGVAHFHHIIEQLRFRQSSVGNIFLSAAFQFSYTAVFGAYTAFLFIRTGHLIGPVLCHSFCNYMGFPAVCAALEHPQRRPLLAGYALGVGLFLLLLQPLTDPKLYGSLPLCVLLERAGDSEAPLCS

CAAX prenyl protease 2 [4] = target: CAAX prenyl protease 2 (Saccharomyces cerevisiae S288c, UniProt Q03530); assay type: biochemical
Sequence of CAAX prenyl protease 2 (Saccharomyces cerevisiae S288c, UniProt Q03530) (Q03530 whole entry): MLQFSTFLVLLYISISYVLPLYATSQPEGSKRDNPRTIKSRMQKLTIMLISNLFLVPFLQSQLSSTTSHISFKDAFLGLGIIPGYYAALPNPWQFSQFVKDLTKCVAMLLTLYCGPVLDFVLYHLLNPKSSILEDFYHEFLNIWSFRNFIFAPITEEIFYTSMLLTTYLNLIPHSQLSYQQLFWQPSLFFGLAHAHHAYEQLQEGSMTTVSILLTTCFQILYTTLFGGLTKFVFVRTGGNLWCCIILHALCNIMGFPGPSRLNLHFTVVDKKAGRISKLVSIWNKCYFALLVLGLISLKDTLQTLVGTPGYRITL

[5] = ADAM10 protease inhibitors, dose response, selectivity assay for ADAM17 exosite inhibitor project, biochemical, FRET peptide substrate, recombinant human ADAM10 (AID 743259);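 also: ADAM10 enzyme cleaving a FRET peptide substrate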
[6] = target: DNA dC->dU-editing enzyme APOBEC-3G (Homo sapiens, UniProt Q9HC16); assay: Dose Response confirmation of small molecule APOBEC3G DNA Deaminase Inhibitors via a fluorescence-based single-stranded DNA deaminase assay. [Related pubchem assays (depositor defined):AID493012, AID493028]; assay type: functional
Sequence of DNA dC->dU-editing enzyme APOBEC-3G (Q9HC16 whole entry): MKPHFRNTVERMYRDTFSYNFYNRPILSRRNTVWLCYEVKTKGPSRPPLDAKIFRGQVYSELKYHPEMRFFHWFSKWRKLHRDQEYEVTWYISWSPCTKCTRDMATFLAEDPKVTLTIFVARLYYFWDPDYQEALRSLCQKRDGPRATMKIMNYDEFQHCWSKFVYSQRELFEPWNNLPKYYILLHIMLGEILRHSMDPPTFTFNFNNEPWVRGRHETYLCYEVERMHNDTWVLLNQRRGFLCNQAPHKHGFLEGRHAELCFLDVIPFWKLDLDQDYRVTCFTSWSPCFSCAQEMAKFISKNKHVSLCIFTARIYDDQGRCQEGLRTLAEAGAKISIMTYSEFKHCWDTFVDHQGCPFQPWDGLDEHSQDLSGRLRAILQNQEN

[7] = target: DNA dC->dU-editing enzyme APOBEC-3A (Homo sapiens, UniProt P31941); assay: APOBEC3A DNA deaminase inhibitors, dose response, biochemical (AID 504722); assay type: functional
Sequence of DNA dC->dU-editing enzyme APOBEC-3A (P31941 whole entry): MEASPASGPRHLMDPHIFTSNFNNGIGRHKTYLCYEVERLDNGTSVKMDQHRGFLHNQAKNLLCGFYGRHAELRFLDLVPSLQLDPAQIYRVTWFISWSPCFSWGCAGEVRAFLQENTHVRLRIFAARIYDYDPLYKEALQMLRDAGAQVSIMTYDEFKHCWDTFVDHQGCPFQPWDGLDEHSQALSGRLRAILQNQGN

[8] = target: T2, Kappa-type opioid receptor (Homo sapiens, UniProt P41145); assay type: functional
T2 sequence (P41145 whole entry): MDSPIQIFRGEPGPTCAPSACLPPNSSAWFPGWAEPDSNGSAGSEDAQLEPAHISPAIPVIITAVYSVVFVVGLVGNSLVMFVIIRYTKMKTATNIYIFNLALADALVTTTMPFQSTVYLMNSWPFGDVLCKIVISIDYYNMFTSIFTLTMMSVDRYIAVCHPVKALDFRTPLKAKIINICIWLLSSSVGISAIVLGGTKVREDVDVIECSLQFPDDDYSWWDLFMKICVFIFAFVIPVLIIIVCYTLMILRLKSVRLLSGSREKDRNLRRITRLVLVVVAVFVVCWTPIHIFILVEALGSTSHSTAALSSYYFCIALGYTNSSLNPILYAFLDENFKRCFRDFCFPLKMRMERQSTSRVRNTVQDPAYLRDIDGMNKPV

BJ [9] = assay: cytotoxicity toward BJ-TERT-LT-ST fibroblasts, dose response, cell-based, RAS-independent, luminescence (AID 1935); assay type: functional; conditions: Homo sapiens;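 also: BJ fibroblasts immortalized with TERT plus LT and ST oncogenes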
[10] = inhibitors of SNCA 5'UTR-driven reporter translation, confirmation, H4 neuroglioma cells, luminescence (AID 1988); assay type: functional, cell-based
Vero [11] = assay: cells; assay type: functional; conditions: Chlorocebus sabaeus
cells [12] = assay type: functional, cell-based
[13] = Luminescence Cell-Based Dose Response HTS to Identify Inhibitors of 5'UTR Stem-Loop Driven Prion Protein mRNA Translation in H4 Neuroglioblastoma Cells. [Related pubchem assays: 1827 (Project Summary), 1813 (Primary HTS)]; assay type: functional
INS1 = assay: beta cell apoptosis inhibitors, cytokine rescue, dose response, luminescence, retest (AID 449756); assay type: functional, cell-based; conditions: Rattus norvegicus;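 also: cell death triggered by IL-1 beta plus TNF-alpha plus IFN-gamma mixture; protective hits raise ATP signal compared with cytokine alone wells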
Vero [14] = assay: cells; assay type: functional, cell-based; conditions: Chlorocebus sabaeus
[15] = tested on: Streptococcus sp. 'group A'; assay: growth inhibition of control SK(-) GAS strain, dose response, counter-screen for streptokinase expression inhibitor project, luminescence, kanamycin, BacTiterGlo, confirmation (AID 1900); assay type: functional, organism-based
[16] = inhibitors of firefly luciferase expression or activity, dose response, H4 neuroglioma cells, luminescence (AID 1990); assay type: functional, cell-based
BJ [17] = assay: cytotoxicity toward BJ-TERT fibroblasts, dose response, cell-based, RAS-independent, luminescence (AID 1933); assay type: functional; conditions: Homo sapiens
[18] = cytotoxicity toward DRD oncogenic fibroblasts, dose response, cell-based, non-viral oncogenic, luminescence (AID 1934); assay type: functional; conditions: Homo sapiens
cells [19] = assay type: functional, cell-based; remark: listed apart in the source
BJ [20] = assay: cytotoxicity toward Ras-transformed BJeLR fibroblasts, dose response, cell-based, alamar blue fluorescence, cherrypicked samples (AID 2631); assay type: functional; conditions: Homo sapiens;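 also: confirmatory dose-response assay in RAS-dependent BJ fibroblasts engineered with TERT, LT and ST, with cytotoxicity read by fluorescence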
Beta-galactosidase [21] = target: T3, Beta-galactosidase (Escherichia coli, UniProt Q8VNN2); assay type: functional
T3 sequence (Q8VNN2 whole entry): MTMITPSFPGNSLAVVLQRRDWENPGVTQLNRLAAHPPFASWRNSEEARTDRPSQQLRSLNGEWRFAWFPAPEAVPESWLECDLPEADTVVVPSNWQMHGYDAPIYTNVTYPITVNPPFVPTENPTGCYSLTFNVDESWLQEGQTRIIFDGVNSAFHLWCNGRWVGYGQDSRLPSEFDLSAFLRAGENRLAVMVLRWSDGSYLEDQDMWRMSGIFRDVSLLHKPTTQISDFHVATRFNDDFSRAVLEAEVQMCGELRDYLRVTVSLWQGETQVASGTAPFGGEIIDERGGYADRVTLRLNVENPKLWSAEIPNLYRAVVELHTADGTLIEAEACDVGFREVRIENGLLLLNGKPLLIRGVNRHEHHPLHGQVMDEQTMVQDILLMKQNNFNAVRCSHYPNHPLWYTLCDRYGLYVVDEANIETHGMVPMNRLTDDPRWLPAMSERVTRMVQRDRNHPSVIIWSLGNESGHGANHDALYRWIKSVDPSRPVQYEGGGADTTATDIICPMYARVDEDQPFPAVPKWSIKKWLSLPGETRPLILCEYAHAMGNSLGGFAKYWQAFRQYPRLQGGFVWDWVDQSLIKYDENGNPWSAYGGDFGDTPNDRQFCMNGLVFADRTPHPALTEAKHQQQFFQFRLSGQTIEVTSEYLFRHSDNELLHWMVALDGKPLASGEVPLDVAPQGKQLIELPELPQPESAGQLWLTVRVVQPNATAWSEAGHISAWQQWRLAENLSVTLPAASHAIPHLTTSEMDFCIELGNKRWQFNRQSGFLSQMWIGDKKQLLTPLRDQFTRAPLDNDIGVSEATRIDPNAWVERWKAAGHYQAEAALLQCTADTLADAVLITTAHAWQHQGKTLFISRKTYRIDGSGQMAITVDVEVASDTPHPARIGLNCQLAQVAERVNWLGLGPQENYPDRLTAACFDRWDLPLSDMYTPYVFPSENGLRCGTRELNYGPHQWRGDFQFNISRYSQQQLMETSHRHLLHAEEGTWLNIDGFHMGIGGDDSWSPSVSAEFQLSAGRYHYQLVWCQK

BJ [22] = assay: cells; assay type: functional, cell-based; conditions: Homo sapiens
[23] = target: T2, Kappa-type opioid receptor; assay type: functional; remark: listed apart in the source
Streptococcus = assay: Group A Streptococcus viability loss, dose response, counter-screen for streptokinase expression inhibitor project, luminescence, BacTiterGlo (AID 1915); assay type: functional, organism-based;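 also: potency for reduction of bacterial viability or growth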
[24] = target: T4, Corticotropin-releasing factor receptor 2/Corticotropin-releasing factor-binding protein (Homo sapiens, UniProt P24387+Q13324); assay: Dose Response confirmation of uHTS hits for small molecule antagonists of the CRF-binding protein and CRF-R2 receptor complex.; assay type: functional; conditions: read-out: IC50_Mean
T4 sequence (Q13324 whole entry): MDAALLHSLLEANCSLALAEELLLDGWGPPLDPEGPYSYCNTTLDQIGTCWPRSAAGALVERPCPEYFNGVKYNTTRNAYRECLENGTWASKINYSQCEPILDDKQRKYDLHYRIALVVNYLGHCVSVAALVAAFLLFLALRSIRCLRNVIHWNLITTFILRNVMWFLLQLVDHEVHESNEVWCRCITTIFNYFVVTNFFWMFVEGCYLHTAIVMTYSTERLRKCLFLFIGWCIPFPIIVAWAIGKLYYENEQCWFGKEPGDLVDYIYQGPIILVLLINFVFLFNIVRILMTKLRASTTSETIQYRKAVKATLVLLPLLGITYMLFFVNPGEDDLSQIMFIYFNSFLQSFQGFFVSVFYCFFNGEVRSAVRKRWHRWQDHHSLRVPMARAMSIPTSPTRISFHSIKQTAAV
T4 sequence (P24387 whole entry): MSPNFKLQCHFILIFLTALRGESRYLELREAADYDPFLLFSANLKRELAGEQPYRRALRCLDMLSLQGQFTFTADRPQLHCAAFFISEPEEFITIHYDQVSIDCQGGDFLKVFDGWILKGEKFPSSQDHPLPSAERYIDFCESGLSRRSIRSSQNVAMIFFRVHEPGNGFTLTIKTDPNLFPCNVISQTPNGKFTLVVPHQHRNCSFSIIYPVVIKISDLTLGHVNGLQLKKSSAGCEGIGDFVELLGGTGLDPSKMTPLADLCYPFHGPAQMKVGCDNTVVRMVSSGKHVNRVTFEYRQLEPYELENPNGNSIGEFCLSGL

[25] = cytotoxicity in HPDE-C7 cells, cell-based, fluorescence, HTS (AID 430); assay type: functional; conditions: Homo sapiens
[26] = target: T4, Corticotropin-releasing factor receptor 2/Corticotropin-releasing factor-binding protein; assay: activators of CRF receptor 2 with binding protein – uHTS hits, confirmation (AID 602473); assay type: functional; conditions: read-out: EC50_Mean
[27] = cytotoxicity in KRAS-transformed pancreatic duct cells, primary screen, cell-based, fluorescence, HTS (AID 431); assay type: functional; conditions: Homo sapiens;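 also: cell line used: HPDE-C7K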
[28] = target: T5, Calpain-2 catalytic subunit (Sus scrofa, UniProt P43367); assay: pig calpain II inhibitor potency, dose response, biochemical, fluorogenic peptide substrate (AID 1420); assay type: functional
T5 sequence (P43367 whole entry): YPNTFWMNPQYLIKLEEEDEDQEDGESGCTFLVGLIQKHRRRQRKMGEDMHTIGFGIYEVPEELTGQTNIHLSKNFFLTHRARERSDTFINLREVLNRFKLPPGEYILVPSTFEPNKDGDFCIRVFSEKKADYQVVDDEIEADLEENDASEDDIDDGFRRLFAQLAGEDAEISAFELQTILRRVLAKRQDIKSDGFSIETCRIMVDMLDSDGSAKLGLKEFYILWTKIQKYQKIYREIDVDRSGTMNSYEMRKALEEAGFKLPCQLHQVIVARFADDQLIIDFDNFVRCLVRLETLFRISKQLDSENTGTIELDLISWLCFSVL

[29] = target: Heat shock protein HSP 90-alpha (Homo sapiens, UniProt P07900); assay type: functional, organism-based
Streptokinase A = target: T6, Streptokinase A (Streptococcus pyogenes serotype M1, UniProt P10520); assay: S. pyogenes streptokinase expression inhibitors, potency, dose response, plasminogen activation absorbance, OD405 (AID 1914); assay type: functional, Streptococcus pyogenes M1 GAS;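 also: secreted streptokinase activity via plasminogen activation per viability signal from cell pellet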
T6 sequence (P10520 whole entry): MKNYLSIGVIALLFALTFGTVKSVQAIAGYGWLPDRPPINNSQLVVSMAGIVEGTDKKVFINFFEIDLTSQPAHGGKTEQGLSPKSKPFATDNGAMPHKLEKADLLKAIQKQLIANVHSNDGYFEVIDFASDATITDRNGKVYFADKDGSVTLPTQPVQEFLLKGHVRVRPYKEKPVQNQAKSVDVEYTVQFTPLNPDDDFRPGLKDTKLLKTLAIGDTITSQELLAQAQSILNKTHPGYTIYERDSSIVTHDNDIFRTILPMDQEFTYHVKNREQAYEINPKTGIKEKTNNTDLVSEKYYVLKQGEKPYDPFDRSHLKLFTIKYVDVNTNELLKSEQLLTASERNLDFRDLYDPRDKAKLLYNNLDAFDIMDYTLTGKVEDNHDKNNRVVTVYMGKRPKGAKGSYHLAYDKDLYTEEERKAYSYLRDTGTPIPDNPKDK

[30] = target: G-protein coupled receptor 55 (Homo sapiens, UniProt Q9Y2T6); assay: GPR55 agonists via beta-arrestin recruitment, primary screen, imaging, U2OS cells, beta-arrestin-GFP redistribution (AID 1961); assay type: functional
Sequence of G-protein coupled receptor 55 (Q9Y2T6 whole entry): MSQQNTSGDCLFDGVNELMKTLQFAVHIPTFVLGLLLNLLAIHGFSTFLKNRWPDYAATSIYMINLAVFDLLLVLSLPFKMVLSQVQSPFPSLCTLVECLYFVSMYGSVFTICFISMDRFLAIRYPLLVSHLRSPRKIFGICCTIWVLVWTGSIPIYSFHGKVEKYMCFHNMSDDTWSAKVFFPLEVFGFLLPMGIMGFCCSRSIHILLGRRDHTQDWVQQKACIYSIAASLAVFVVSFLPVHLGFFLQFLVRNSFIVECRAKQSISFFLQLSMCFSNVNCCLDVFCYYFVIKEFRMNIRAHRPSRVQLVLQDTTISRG

[31] = Shn3 3'UTR reporter inhibitors, dose response, cell-based, Clone20 osteoblasts, firefly luciferase, cherry-picked (AID 624132); assay type: functional;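 also: firefly luciferase luminescence from reporter carrying the Shn3 3'UTR in osteoblasts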
[32] = control 3'UTR Renilla luciferase suppression, dose response, counter-screen for Shn3 inhibitor project, cell-based, Clone20-Shn3RL, cherry-picked (AID 624133); assay type: functional
[33] = target: Photoreceptor-specific nuclear receptor (Homo sapiens, UniProt Q9Y5X4); assay type: functional, cell-based;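 also: CHO-S cells with Gal4-NCOR and VP16-NR2E3 two-hybrid luciferase reporter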
Sequence of Photoreceptor-specific nuclear receptor (Q9Y5X4 whole entry, the tested form may be a part): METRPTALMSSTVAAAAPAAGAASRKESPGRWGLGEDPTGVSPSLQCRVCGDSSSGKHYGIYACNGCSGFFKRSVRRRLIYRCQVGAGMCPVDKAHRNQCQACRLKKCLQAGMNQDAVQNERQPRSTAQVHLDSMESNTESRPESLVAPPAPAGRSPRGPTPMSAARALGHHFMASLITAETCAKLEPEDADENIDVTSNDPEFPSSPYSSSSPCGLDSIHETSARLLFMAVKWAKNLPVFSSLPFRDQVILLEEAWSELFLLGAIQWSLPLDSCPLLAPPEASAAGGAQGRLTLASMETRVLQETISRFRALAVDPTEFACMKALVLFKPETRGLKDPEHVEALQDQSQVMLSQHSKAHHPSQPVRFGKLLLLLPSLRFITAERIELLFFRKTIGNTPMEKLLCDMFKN

[34] = nonselective inhibitors of cellular cAMP signaling, dose response, counter-screen for MC4R biased antagonist project, cell-based, TR-FRET cAMP detection (AID 602305); assay type: functional;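 also: U2OS cells stimulated with forskolin near its EC80 as the cAMP inducer; potency is for inhibition of forskolin-stimulated cAMP signaling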
[35] = inhibitors of PGC1a acetylation in cells, dose response, cell-based, cherry-picked samples (AID 720514); assay type: functional;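 also: potency may reflect raised or lowered acetylation signal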
Melanocortin receptor 4 = Melanocortin receptor 4 (Homo sapiens, UniProt P32245); assay: MC4R antagonist potency on cAMP, dose response, cell-based, TR-FRET, biased antagonists (AID 602298); assay type: functional;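 also: antagonist potency against agonist-stimulated cAMP production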
Sequence of Melanocortin receptor 4 (P32245 whole entry): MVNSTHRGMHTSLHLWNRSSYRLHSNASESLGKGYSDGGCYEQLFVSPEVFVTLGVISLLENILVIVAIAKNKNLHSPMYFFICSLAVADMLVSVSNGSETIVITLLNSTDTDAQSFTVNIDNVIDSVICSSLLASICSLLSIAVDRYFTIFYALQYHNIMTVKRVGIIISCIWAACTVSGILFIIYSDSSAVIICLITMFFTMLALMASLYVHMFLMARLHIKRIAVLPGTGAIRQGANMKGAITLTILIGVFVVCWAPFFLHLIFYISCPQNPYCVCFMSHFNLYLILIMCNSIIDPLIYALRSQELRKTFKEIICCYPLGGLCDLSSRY

Beta-galactosidase [36] = target: T3, Beta-galactosidase; assay: beta-galactosidase enzyme inhibitors and activators, dose response, artefact control for CCR6 antagonist project, biochemical, E. coli enzyme, set 3 (AID 504712); assay type: functional
[37] = HepG2 cell cytotoxicity, dose response, cytotoxicity control for Shn3 inhibitor project, CellTiter-Glo, cherry-picked (AID 624134); assay type: functional, cell-based

Sequence of Disintegrin and metalloproteinase domain-containing protein 17 (P78536 whole entry, the tested form may be a part): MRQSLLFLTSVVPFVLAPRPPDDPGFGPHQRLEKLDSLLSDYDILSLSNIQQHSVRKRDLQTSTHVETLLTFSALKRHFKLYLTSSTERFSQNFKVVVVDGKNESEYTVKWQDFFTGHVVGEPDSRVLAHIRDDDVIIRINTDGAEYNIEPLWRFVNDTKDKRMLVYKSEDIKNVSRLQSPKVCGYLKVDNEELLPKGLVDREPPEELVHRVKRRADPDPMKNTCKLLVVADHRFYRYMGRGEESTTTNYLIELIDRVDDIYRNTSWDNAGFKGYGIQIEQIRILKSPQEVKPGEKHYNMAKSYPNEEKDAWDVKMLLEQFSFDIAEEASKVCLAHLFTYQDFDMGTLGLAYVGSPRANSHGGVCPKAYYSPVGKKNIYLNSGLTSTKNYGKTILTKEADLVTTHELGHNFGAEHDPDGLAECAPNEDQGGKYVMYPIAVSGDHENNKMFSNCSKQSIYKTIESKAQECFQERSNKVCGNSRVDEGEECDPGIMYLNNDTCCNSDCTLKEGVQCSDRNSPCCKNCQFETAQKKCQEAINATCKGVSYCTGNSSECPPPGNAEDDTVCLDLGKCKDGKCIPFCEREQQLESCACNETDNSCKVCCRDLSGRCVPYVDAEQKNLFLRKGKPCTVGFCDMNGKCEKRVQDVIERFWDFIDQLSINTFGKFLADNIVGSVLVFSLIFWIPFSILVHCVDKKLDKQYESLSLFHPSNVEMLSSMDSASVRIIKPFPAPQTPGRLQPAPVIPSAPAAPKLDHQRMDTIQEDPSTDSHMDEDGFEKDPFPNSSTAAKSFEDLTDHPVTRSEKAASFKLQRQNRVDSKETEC

For `CCO[C@H]1OC(C(=O)Nc2ccccc2)=C[C@@H](c2csc3ccccc23)[C@@H]1CCCO`, the IC50 [1] was > 69.5 µM (inactive), the CC50 [2] was 18.7 µM (active) and the AC50 (CAAX prenyl protease 2 [3]) was 0.183 µM (active). The AC50 (CAAX prenyl protease 2 [4]) was 17.5 µM (active) and the IC50 [5] was 11.2 µM (inactive).
In the case of `CCOc1ccc(N)c(SSc2cc(OCC)ccc2N)c1`, the IC50 [6] is reported as 17.1 µM (active) and the IC50 [7] is reported as > 100 µM (inactive).
In the case of `Cc1ccccc1N=Nc1ccc(O)c2ncccc12`, the IC50 [8] is reported as greater than 32 µM, the EC50 (BJ [9]) is reported as 6.64 µM (inconclusive) and the EC50 [10] is reported as 2.03 µM (active). The CC50 (Vero [11]) was 5.63 µM (active), the EC50 (cells [12]) was 46.8 µM (active) and the EC50 [13] was 2.89 µM (active). For the same compound, the AC50 (INS1) was 1.65 µM (active), the IC50 (Vero [14]) was > 25 µM (active) and the EC50 [15] was < 0.06 µM (active). For the same compound, the EC50 [16] was 5.81 µM (active), the EC50 (BJ [17]) was 10.4 µM (inconclusive) and the EC50 [18] was 12.7 µM (active). For the same compound, the EC50 (cells [19]) was 7.93 µM (active), the EC50 (BJ [20]) was 0.677 µM (active) and the EC50 (Beta-galactosidase [21]) was 30.1 µM (active). For the same compound, the EC50 (BJ [22]) was 15.1 µM (inconclusive), the IC50 [23] was 4.11 µM (active) and the EC50 (Streptococcus) was 0.437 µM (active).
For `CCCOC(=O)c1ccc(Oc2c[nH]nc2-c2ccc(OCC)cc2O)cc1`, the IC50 [24] was > 47.1 µM (inactive), the EC50 [25] was 6.6 µM (active) and the IC50 [1] was > 69.5 µM (inactive). The EC50 [15] was 8.69 µM (active), the EC50 [26] was > 53 µM (inactive) and the EC50 [27] was 6.96 µM (active). The IC50 [28] was 19.6 µM (not active), the AC50 [29] was 7.92 µM (active) and the EC50 (Streptokinase A) was > 150 µM (not active). For the same compound, the EC50 [30] was > 32 µM (inactive) and the EC50 (Streptococcus) was 33.8 µM (active).
With `O=S(=O)(/C(=C\c1ccc(C(F)(F)F)cc1)c1nc2ccccc2[nH]1)c1ccccc1` the AC50 [31] was 1.85 µM (active), the AC50 [32] was < 0.5 µM (active) and the IC50 [33] was 4.42 µM (active). The IC50 [34] was > 64.6 µM (inactive), the AC50 [35] was 3.11 µM (active) and the IC50 (Melanocortin receptor 4) was 9.39 µM (active). The IC50 (Beta-galactosidase [36]) was > 66.6 µM (inactive) and the AC50 [37] was 6.49 µM (active).
